Here are results for five molecules from PubChem BioAssay AID1918948 (Molecular Pharmacology Branch, DTP, NCI, 2023).

SMILES strings stand for the structures. Values joined by “and” are separate entries in the source; they are usually repeats but may differ in a detail not shown here. Identical values can stand only once. Some results are limits rather than exact numbers.

The test system of this assay is K-562 leukemia growth, % test/control. The assay can be described thus: Anticancer human tumor K-562 cell line growth inhibition.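 For all read-outs here: spheroids exposed to compounds for 7 days.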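 For viability, T/C: 100% = DMSO vehicle wells and lower values mean fewer viable cells.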 Conditions: spheroids with HUVEC and MSC; for viability, T/C: stronger effect = lower value. In short, it runs like this: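 Multicellular complex spheroids of tumor cells with human endothelial cells (HUVEC) and mesenchymal stem cells; the LSD1 inhibitor iadademstat was combined with standard-of-care or investigational agents. Top concentration at or near clinical Cmax, half-log dilutions; final DMSO ≤0.25%.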

[1] abbreviates: curve of first compound, second compound 0.1 µM.
Setting [2] is: curve of first compound, second compound 0.316 µM.
Where [3] appears, read: curve of first compound, second compound 1 µM.
Setting [4] is: curve of first compound, second compound 3.16 µM.
Setting [5] is: curve of first compound, second compound 10 µM.

Consider `Nc1ccccc1NC(=O)c1ccc(CNC(=O)OCc2cccnc2)cc1` + NC1CC1c1ccc(-c2cccc(O)c2)cc1, for which the IC50 reads like this: under setting [1], 180 nM; under setting [2], 173 nM; under setting [3], 165 nM; under setting [4], 152 nM; under setting [5], 121 nM. For the same molecule, the viability, T/C runs as follows: (second compound 0.1 µM, first compound 0.00949 µM) 114%; (second compound 0.1 µM, first compound 0.03 µM) 111%; (second compound 0.1 µM, first compound 0.0949 µM) 103%; (second compound 0.1 µM, first compound 0.3 µM) 7.04%; (second compound 0.1 µM, first compound 0.949 µM) 0.24%; (second compound 0.1 µM, first compound 3 µM) 1.31%. Also, the viability, T/C reads like this: (second compound 0.316 µM, first compound 0.00949 µM) 114%; (second compound 0.316 µM, first compound 0.03 µM) 109%; (second compound 0.316 µM, first compound 0.0949 µM) 97.1%; (second compound 0.316 µM, first compound 0.3 µM) 6.48%; (second compound 0.316 µM, first compound 0.949 µM) 0.2%; (second compound 0.316 µM, first compound 3 µM) 0.13%. The viability, T/C (second compound 1 µM, first compound 0.00949 µM) was 111%; the viability, T/C (second compound 1 µM, first compound 0.03 µM) is 110%; the viability, T/C (second compound 1 µM, first compound 0.0949 µM) is 92%; the viability, T/C (second compound 1 µM, first compound 0.3 µM) is 5.06%; the viability, T/C (second compound 1 µM, first compound 0.949 µM) was 0.25%; the viability, T/C (second compound 1 µM, first compound 3 µM) is 0.13%. Besides, the viability, T/C (second compound 3.16 µM, first compound 0.00949 µM) was 111%; the viability, T/C (second compound 3.16 µM, first compound 0.03 µM) is 111%; the viability, T/C (second compound 3.16 µM, first compound 0.0949 µM) is 81.3%; the viability, T/C (second compound 3.16 µM, first compound 0.3 µM) was 4.61%; the viability, T/C (second compound 3.16 µM, first compound 0.949 µM) is 0.18%; the viability, T/C (second compound 3.16 µM, first compound 3 µM) was 1.02%. Also, the viability, T/C is 104% (second compound 10 µM, first compound 0.00949 µM); 98.5% (second compound 10 µM, first compound 0.03 µM); 62.6% (second compound 10 µM, first compound 0.0949 µM); 3.34% (second compound 10 µM, first compound 0.3 µM); 0.19% (second compound 10 µM, first compound 0.949 µM); 1.28% (second compound 10 µM, first compound 3 µM).
In the case of `Nc1ccccc1NC(=O)c1ccc(CNC(=O)OCc2cccnc2)cc1`, the viability, T/C reads like this: (compound 0.00949 µM) 107% and 112%; (compound 0.03 µM) 101% and 110%; (compound 0.0949 µM) 103% and 106%; (compound 0.3 µM) 74.6% and 11.2%; (compound 0.949 µM) 4.47% and 0.45%; (compound 3 µM) 0.26% and 0.16%. Further, the IC50 (curve of compound) is 449 nM and 188 nM.
As for `Cn1ncnc1C1c2n[nH]c(=O)c3cc(F)cc(c23)NC1c1ccc(F)cc1` (stereo unspecified), the viability, T/C is, setting by setting: (compound 0.000316 µM) 104% and 106%; (compound 0.001 µM) 95.2% and 105%; (compound 0.00316 µM) 98.8% and 96.9%; (compound 0.01 µM) 98.7% and 102%; (compound 0.0316 µM) 99.4% and 102%; (compound 0.1 µM) 96.7% and 97.5%. Besides, the concentration for half-maximal inhibition (IC50) (curve of compound) was more than 100 nM.
In the case of `CC1COCCN1c1cc(C2(S(C)(=N)=O)CC2)nc(-c2ccnc3[nH]ccc23)n1` (stereo unspecified) + NC1CC1c1ccc(-c2cccc(O)c2)cc1, the IC50 came to 1590 nM under setting [1]; 1580 nM under setting [2]; 1500 nM under setting [3]; 1490 nM under setting [4]; 1350 nM under setting [5]. Further, the viability, T/C is, setting by setting: (second compound 0.1 µM, first compound 0.0316 µM) 115%; (second compound 0.1 µM, first compound 0.1 µM) 107%; (second compound 0.1 µM, first compound 0.316 µM) 108%; (second compound 0.1 µM, first compound 1 µM) 77.3%; (second compound 0.1 µM, first compound 3.16 µM) 9.88%; (second compound 0.1 µM, first compound 10 µM) 2.95%. Also, the viability, T/C is 100% (second compound 0.316 µM, first compound 0.0316 µM); 107% (second compound 0.316 µM, first compound 0.1 µM); 101% (second compound 0.316 µM, first compound 0.316 µM); 77.9% (second compound 0.316 µM, first compound 1 µM); 7.2% (second compound 0.316 µM, first compound 3.16 µM); 2.06% (second compound 0.316 µM, first compound 10 µM). Further, the viability, T/C is, setting by setting: (second compound 1 µM, first compound 0.0316 µM) 105%; (second compound 1 µM, first compound 0.1 µM) 104%; (second compound 1 µM, first compound 0.316 µM) 103%; (second compound 1 µM, first compound 1 µM) 74%; (second compound 1 µM, first compound 3.16 µM) 6.19%; (second compound 1 µM, first compound 10 µM) 1.92%. Also, the viability, T/C (second compound 3.16 µM, first compound 0.0316 µM) was 109%; the viability, T/C (second compound 3.16 µM, first compound 0.1 µM) is 105%; the viability, T/C (second compound 3.16 µM, first compound 0.316 µM) was 99.2%; the viability, T/C (second compound 3.16 µM, first compound 1 µM) was 72.8%; the viability, T/C (second compound 3.16 µM, first compound 3.16 µM) is 6.87%; the viability, T/C (second compound 3.16 µM, first compound 10 µM) is 2.7%. Besides, the viability, T/C is, setting by setting: (second compound 10 µM, first compound 0.0316 µM) 105%; (second compound 10 µM, first compound 0.1 µM) 105%; (second compound 10 µM, first compound 0.316 µM) 106%; (second compound 10 µM, first compound 1 µM) 65.7%; (second compound 10 µM, first compound 3.16 µM) 5.01%; (second compound 10 µM, first compound 10 µM) 2.52%.
As to `CC(C)CC(NC(=O)CNC(=O)c1cc(Cl)ccc1Cl)B1OC(=O)CC(CC(=O)O)(C(=O)O)O1` (stereo unspecified), the viability, T/C is, setting by setting: (compound 0.000316 µM) 103% and 97%; (compound 0.001 µM) 97.5% and 95.5%; (compound 0.00316 µM) 95.6% and 97.4%; (compound 0.01 µM) 74.2% and 68.6%; (compound 0.0316 µM) 24.2% and 13.3%; (compound 0.1 µM) 6.61% and 2.45%. Besides, the IC50 (curve of compound) is 17.4 nM and 14.8 nM.

By IC50 is commonly meant the concentration that inhibits the measured activity by half. Broadly, the viability, T/C is the result in the treated group divided by that in the control group, in per cent.
